The record followed here is patent publication EP3404113A1, “METHOD FOR DETECTING PROTEIN-DNA INTERACTION” (Universidad del Pais Vasco, priority 2017, dated 2018).

Assay [1] deals with T1, FOXM1 (Homo sapiens, UniProt Q08050).
T1 construct: the FoxMIC gene (residues 222-360) was cloned in a pET-28 vector; made in house; host or cells: E. coli BL21 (DE3)
T1 sequence (Q08050 222-360): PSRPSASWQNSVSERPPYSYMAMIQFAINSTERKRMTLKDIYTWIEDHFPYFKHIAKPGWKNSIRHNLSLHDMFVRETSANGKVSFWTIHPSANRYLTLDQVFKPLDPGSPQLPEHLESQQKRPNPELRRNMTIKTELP
The assay is described as follows: Nanopore single-molecule measurement of the inhibition of FOXM1 binding to its DNA target sequence. As for the experimental part:
The cis compartment (connected to the ground electrode and where samples were added) was filled with 5 mM MgCl2, 150 mM KCl, 10 mM HEPES pH 7.2 (to mimic physiological conditions) and the trans compartment with 5 mM MgCl2, 2 M KCl, 10 mM HEPES pH 7.2 (to increase the ionic current signal). 0.5 µL of previously heptamerized α-HL was added to the cis compartment and following the first insertion the chamber was manually perfused to remove excess of α-HL. Ionic currents through the αHL pore were measured using Ag/AgCl electrodes with agar bridges in 3 M KCl, and balanced before measurements. The electrodes were connected to an amplifier (Axopatch 200B, Molecular Devices), the signal was filtered at 5 kHz (lowpass Bessel filter) and acquired at 20 kHz with a digitizer (Digidata 1440A, Molecular Devices). All experiments were repeated in at least 3 different pores. Raw data was first analyzed with pClamp software (Molecular Devices) to obtain the current and dwell time of the ionic current levels, >90% of the signals longer than 10 ms were the characteristic signals described in the main text. The residual current of a level is defined as the ionic current of the level divided by the ionic current of the open pore. Data analysis was carried out with Igor Pro (Wavemetrics) and molecular representations were performed using Chimera (UCSF).^47 The confidence interval of the kinetic rates were estimated using: kupp = k⋅(1+z/√n) [formula] klow = k⋅(1−z/√n) [formula] Transcription factors are frequently considered as ideal targets for cancer therapy, yet finding molecules capable of specifically inhibiting their interactions with DNA is challenging. Motivated by the high sensitivity of our measurements, we aimed to explore the capabilities of the nanopore to detect small molecule activity. We choose the DNA binding domain of Forkhead box protein M1 (FOXM1), which is overexpressed in many cancers and for which a molecule that inhibits binding to its target sequence has been reported, FDI-6^37 (Figure 3). When a DNA hairpin containing the binding sequence^38 and a 5' overhang is subjected to nanopore analysis we observe the characteristic ionic current signal reflecting the threading, unzipping and translocation of the DNA (Figure 3a). […] In agreement with previous reports,^29 we attribute the differences in unzipping kinetics to the differences in the first base pair to be unzipped. The RepE oligonucleotide begins with G-C while that of FOXM1 begins with A-T. Following the addition of FOXM1 protein, events showing an additional step are detected (Figure 3b), which correspond to the threading of protein-bound DNA molecules, detachment of the protein, unzipping and translocation of the DNA through the pore. […]

The target of assay [2] is T2, RepE-DNA (Escherichia coli, UniProt P03856).
T2 construct: purified from an intein vector pTXB1 containing the ORF fused with intein at the C terminus; made in house; host or cells: E. coli BL21 (DE3)
As to the kind of experiment: Multiplexed nanopore single-molecule measurement, RepE-DNA pair (Reporter 1). It counts as binding. The following applies: 0.87 µM RepE, 0.047 µM DNA, increasing amounts of FDI-6, n = 4.

Assay [3] concerns the target T3, FOXM1-DNA (Homo sapiens, UniProt Q08050).
T3 construct: the FoxMIC gene (residues 222-360) was cloned in a pET-28 vector; made in house; host or cells: E. coli BL21 (DE3)
T3 sequence (Q08050 222-360): T1 sequence (Q08050 222-360)
As to the kind of experiment: Multiplexed nanopore single-molecule measurement, FOXM1-DNA pair (Reporter 2). Conditions: increasing amounts of FDI-6. It counts as binding.

The subject of assay [4] is DNA-hairpin reporter. The assay is described as follows: Nanopore detection of a non-specific DNA interacting compound. It counts as binding.

The structures appear in SMILES notation. “Also recorded” adds a separate entry of the source.

As for `Nc1c(C(=O)Nc2ccc(F)cc2)sc2nc(-c3cccs3)cc(C(F)(F)F)c12` [FDI-6], the “mechanism of action deduced from kinetics of DNA unzipping and protein detachment” value in assay [1] was “binds the protein (not the DNA), and that binding is competitive”. In assay [1] (affinity of the inhibitor for the protein, model: one site, reversible, binding completely prevents protein-DNA interaction, mean ± SD, n=7), this molecule came in with a Kd of 139 ± 73 µM. Besides, the koff in assay [1] (protein detachment from DNA in the presence of FDI-6, +90 mV, 95 % CI, n = 3, compound absent 57 [96 - 18], read-out: koff,90mV,FD16) was determined as 49 s⁻¹. In assay [1] (sequential additions of FDI-6 to FOXM1-DNA solution), the “fraction of events with a protein bound to DNA” value was “decreases”. The “effect on the interaction between RepE and its target sequence” value in assay [2] is recorded as “had no effect; also recorded: in none of our measurements was the RepE-DNA pair affected”. The “fraction of events assigned to Reporter 2 with bound protein” value in assay [3] is listed as “decreased”.

As to `COc1cccc2c1C(=O)c1c(O)c3c(c(O)c1C2=O)C[C@@](O)(C(=O)CO)C[C@@H]3O[C@H]1C[C@H](N)[C@H](O)[C@H](C)O1` [doxorubicin], the ionic current traces result in assay [4] (2.5 mM doxorubicin added to a solution of RepE and its DNA-hairpin reporter) was “no characteristic signal for DNA unzipping and translocation was detected”. Also, the ionic current signal entry in assay [4] (interaction of doxorubicin with the DNA) is listed as “radically changed the ionic current signal, giving noisy long-lived events”.

Broadly, the Kd is a measure of binding affinity in units of concentration. As usually defined, the koff is the first-order rate constant of dissociation.
